According to patent publication US10597388B2, “Pyridazinone herbicides” (FMC CORPORATION, priority 2014, dated 2020):
Read-outs that look alike come from different tables or passages of the source.

Tests used:
Assay in all cases: Test A greenhouse herbicide test, pre- and postemergence
Assay type in all cases: in vivo
[1] = test system: foxtail, giant (giant foxtail, Setaria faberii); conditions: Setaria faberi, 240 h; for pest or weed control at 125 g/ha: 125 g ai/ha; for pest or weed control at 500 g/ha: 500 g ai/ha; for pest or weed control at 500 g/ha / pest or weed control at 1000 g/ha: 0 to 100 scale; for pest or weed control at 1000 g/ha: 1000 g ai/ha
Procedure, shortened: (§1)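 Seeds sown in loam–sand blend got a preemergence directed soil spray of compound in non-phytotoxic solvent with surfactant. Postemergence treatment was given at 2–10 cm, one- to two-leaf stage. After ~10 d in greenhouse, injury was rated visually vs untreated controls, 0 (no effect) to 100 (complete control).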

[2] = test system: wheat (Triticum aestivum); conditions: Triticum aestivum, 240 h; for plant injury at 125 g/ha: 125 g ai/ha; for plant injury at 500 g/ha: 500 g ai/ha; for plant injury at 500 g/ha / plant injury at 1000 g/ha: 0 to 100 scale; for plant injury at 1000 g/ha: 1000 g ai/ha
Procedure, shortened: as §1

[3] = test system: corn (Zea mays); conditions: Zea mays, 240 h; for Corn plant response rating (crop injury, 0 = no effect, 100 = complete kill) at 125 g/ha / plant injury at 500 g/ha / plant injury at 1000 g/ha: post-emergence, Postemergence; for Corn plant response rating (crop injury, 0 = no effect, 100 = complete kill) at 125 g/ha: visual rating after approx. 10 d, 0 to 100 scale (0 no effect, 100 complete control); for plant injury at 500 g/ha / plant injury at 1000 g/ha: 0 is no effect, 100 is complete control; for plant injury at 1000 g/ha / Corn plant response rating (crop injury, 0 = no effect, 100 = complete kill) at 1000 g/ha: 1000 g ai/ha
Procedure, shortened: as §1

[4] = test system: barnyardgrass (Echinochloa crus-galli); conditions: Echinochloa crus-galli, 240 h; for pest or weed control at 125 g/ha: 125 g ai/ha; for pest or weed control at 500 g/ha: 500 g ai/ha; for pest or weed control at 500 g/ha / pest or weed control at 1000 g/ha: 0 to 100 scale; for pest or weed control at 1000 g/ha: 1000 g ai/ha
Procedure, shortened: as §1

[5] = test system: pigweed (Amaranthus retroflexus); conditions: Amaranthus retroflexus, 240 h; for pest or weed control at 125 g/ha: 125 g ai/ha; for pest or weed control at 500 g/ha: 500 g ai/ha; for pest or weed control at 500 g/ha / pest or weed control at 1000 g/ha: 0 to 100 scale; for pest or weed control at 1000 g/ha: 1000 g ai/ha
Procedure, shortened: as §1

[6] = test system: ragweed (common ragweed, Ambrosia elatior); conditions: Ambrosia artemisiifolia, 240 h; for pest or weed control at 125 g/ha: 125 g ai/ha; for pest or weed control at 500 g/ha: 500 g ai/ha, 0 to 100 scale
Procedure, shortened: as §1

[7] = test system: kochia (Kochia scoparia); conditions: Bassia scoparia, 240 h; for pest or weed control at 125 g/ha: 125 g ai/ha; for pest or weed control at 500 g/ha: 500 g ai/ha, 0 to 100 scale
Procedure, shortened: as §1

[8] = test system: ryegrass, Italian (Italian ryegrass, Lolium multiflorum); conditions: Lolium multiflorum, 240 h; for pest or weed control at 125 g/ha: 125 g ai/ha; for pest or weed control at 500 g/ha: 500 g ai/ha, 0 to 100 scale
Procedure, shortened: as §1

[9] = post-emergence, Postemergence, visual rating after approx. 10 d, 0 to 100 scale (0 no effect, 100 complete control), read-out: Plant response rating, Foxtail, Giant
[10] = post-emergence, Postemergence, 0 is no effect, 100 is complete control, read-out: Foxtail, Giant plant response rating
[11] = pre-emergence, Preemergence, 0 to 100 scale where 0 is no effect and 100 is complete control, read-out: Foxtail, Giant plant response rating
[12] = pre-emergence, Preemergence, 0 no effect, 100 complete control, read-out: Plant response rating, Foxtail, Giant
[13] = post-emergence, Postemergence, visual rating after approx. 10 d, 0 to 100 scale (0 no effect, 100 complete control), read-out: Plant response rating, Wheat
[14] = post-emergence, Postemergence, 0 is no effect, 100 is complete control, read-out: Wheat plant response rating
[15] = pre-emergence, Preemergence, 0 no effect, 100 complete control, read-out: Plant response rating, Wheat
[16] = 500 g ai/ha, 0 to 100 scale, read-out: Corn plant response rating
[17] = post-emergence, Postemergence, visual rating after approx. 10 d, 0 to 100 scale (0 no effect, 100 complete control), read-out: Plant response rating, Barnyardgrass
[18] = post-emergence, Postemergence, 0 is no effect, 100 is complete control, read-out: Barnyardgrass plant response rating
[19] = pre-emergence, Preemergence, 0 to 100 scale where 0 is no effect and 100 is complete control, read-out: Barnyardgrass plant response rating
[20] = pre-emergence, Preemergence, 0 no effect, 100 complete control, read-out: Plant response rating, Barnyardgrass
[21] = post-emergence, Postemergence, visual rating after approx. 10 d, 0 to 100 scale (0 no effect, 100 complete control), read-out: Plant response rating, Pigweed
[22] = post-emergence, Postemergence, 0 is no effect, 100 is complete control, read-out: Pigweed plant response rating
[23] = pre-emergence, Preemergence, 0 to 100 scale where 0 is no effect and 100 is complete control, read-out: Pigweed plant response rating
[24] = pre-emergence, Preemergence, 0 no effect, 100 complete control, read-out: Plant response rating, Pigweed
[25] = 0 to 100 scale, read-out: Corn plant response rating
[26] = pre-emergence, Preemergence, 0 to 100 scale, 0 no effect, 100 complete control

Structure (SMILES)	pest or weed control at 125 g/ha [1, 9]	pest or weed control at 500 g/ha [1, 10]	pest or weed control at 125 g/ha [1, 11]	pest or weed control at 500 g/ha [1, 12]	plant injury at 125 g/ha [2, 13]	plant injury at 500 g/ha [2, 14]	Corn plant response rating (crop injury, 0 = no effect, 100 = complete kill) at 125 g/ha ([3]; 125 g ai/ha)	plant injury at 500 g/ha [3, 16]	pest or weed control at 125 g/ha [4, 17]	pest or weed control at 500 g/ha [4, 18]	pest or weed control at 125 g/ha [4, 19]	pest or weed control at 500 g/ha [4, 20]	pest or weed control at 125 g/ha [5, 21]	pest or weed control at 500 g/ha [5, 22]	pest or weed control at 125 g/ha [5, 23]	pest or weed control at 500 g/ha [5, 24]	pest or weed control at 1000 g/ha [1, 10]	pest or weed control at 1000 g/ha [1, 12]	plant injury at 1000 g/ha [2, 14]	plant injury at 1000 g/ha [2, 15]	further results
Cc1nn(C)c(=O)c(-c2c(C)oc3cccc(C)c23)c1O [Compound 8, 4-(2,4-dimethyl-3-benzofuranyl)-5-hydroxy-2,6-dimethyl-3(2H)-pyridazinone]	0%	30%	40%	60%	0%	0%	0%	0%	0%	0%	0%	0%	70%	80%	70%	100%					plant injury at 125 g/ha ([2]; pre-emergence, Preemergence, 0 to 100 scale where 0 is no effect and 100 is complete control, read-out: Wheat plant response rating): 0%; plant injury at 500 g/ha [2, 15]: 0%; plant injury at 125 g/ha ([3]; pre-emergence, Preemergence, 125 g ai/ha, 0 to 100 scale where 0 is no effect and 100 is complete control, read-out: Corn plant response rating): 0%; Corn plant response rating (crop injury, 0 = no effect, 100 = complete kill) at 500 g/ha ([3]; pre-emergence, Preemergence, 500 g ai/ha, 0 to 100 scale, 0 no effect, 100 complete control): 0%
CCc1oc2ccc(C)cc2c1-c1c(O)c(C)nn(C)c1=O [Compound 10, 4-(2-ethyl-5-methyl-3-benzofuranyl)-5-hydroxy-2,6-dimethyl-3(2H)-pyridazinone]																	80%	100%	0%	0%	plant injury at 1000 g/ha [3, 25]: 20%; Corn plant response rating (crop injury, 0 = no effect, 100 = complete kill) at 1000 g/ha [3, 26]: 10%; pest or weed control at 1000 g/ha [4, 18]: 90%; pest or weed control at 1000 g/ha [4, 20]: 100%; pest or weed control at 1000 g/ha [5, 22]: 90%; pest or weed control at 1000 g/ha [5, 24]: 100%
Cc1nn(C)c(=O)c(-c2cccc3ccccc23)c1O [Compound 11, 5-hydroxy-2,6-dimethyl-4-(1-naphthalenyl)-3(2H)-pyridazinone]																	90%	90%	60%	50%	plant injury at 1000 g/ha [3, 25]: 50%; Corn plant response rating (crop injury, 0 = no effect, 100 = complete kill) at 1000 g/ha [3, 26]: 20%; pest or weed control at 1000 g/ha [4, 18]: 80%; pest or weed control at 1000 g/ha [4, 20]: 90%; pest or weed control at 1000 g/ha [5, 22]: 90%; pest or weed control at 1000 g/ha [5, 24]: 100%
Cc1ccc2oc(C)c(-c3c(OC(=O)C(C)(C)C)c(C)nn(C)c3=O)c2c1 [Compound 17, 5-(2,5-dimethyl-3-benzofuranyl)-1,6-dihydro-1,3-dimethyl-6-oxo-4-pyridazinyl 2,2-dimethylpropanoate]	0%	0%	0%	0%	0%	0%	0%	0%	0%	0%	0%	0%	0%	0%	0%	0%					pest or weed control at 125 g/ha ([6]; post-emergence, Postemergence, visual rating after approx. 10 d, 0 to 100 scale (0 no effect, 100 complete control), read-out: Plant response rating, Ragweed): 0%; pest or weed control at 500 g/ha ([6]; post-emergence, Postemergence, 0 is no effect, 100 is complete control, read-out: Ragweed plant response rating): 0%; pest or weed control at 125 g/ha ([6]; pre-emergence, Preemergence, 0 to 100 scale where 0 is no effect and 100 is complete control, read-out: Ragweed plant response rating): 0%; pest or weed control at 500 g/ha ([6]; pre-emergence, Preemergence, 0 no effect, 100 complete control, read-out: Plant response rating, Ragweed): 10%; pest or weed control at 125 g/ha ([7]; post-emergence, Postemergence, visual rating after approx. 10 d, 0 to 100 scale (0 no effect, 100 complete control), read-out: Plant response rating, Kochia): 0%; pest or weed control at 500 g/ha ([7]; post-emergence, Postemergence, 0 is no effect, 100 is complete control, read-out: Kochia plant response rating): 0%; pest or weed control at 125 g/ha ([7]; pre-emergence, Preemergence, 0 to 100 scale where 0 is no effect and 100 is complete control, read-out: Kochia plant response rating): 0%; pest or weed control at 500 g/ha ([7]; pre-emergence, Preemergence, 0 no effect, 100 complete control, read-out: Plant response rating, Kochia): 0%; pest or weed control at 125 g/ha ([8]; post-emergence, Postemergence, visual rating after approx. 10 d, 0 to 100 scale (0 no effect, 100 complete control), read-out: Plant response rating, Ryegrass, Italian): 50%; pest or weed control at 500 g/ha ([8]; post-emergence, Postemergence, 0 is no effect, 100 is complete control, read-out: Ryegrass, Italian plant response rating): 60%; pest or weed control at 125 g/ha ([8]; pre-emergence, Preemergence, 0 to 100 scale where 0 is no effect and 100 is complete control, read-out: Ryegrass, Italian plant response rating): 10%; pest or weed control at 500 g/ha ([8]; pre-emergence, Preemergence, 0 no effect, 100 complete control, read-out: Plant response rating, Ryegrass, Italian): 40%
